The nature of the series: xn = mol fraction of the nth substance listed. As to conditions: Liquid, Gas absorption technique.

In the NIST ThermoML archive (doi:10.1016/j.jct.2019.02.022) one finds binary diffusion coefficient data, which are given here for seven compounds.

The structures appear in SMILES notation.

Turning to `CCn1cc[n+](C)c1.O=S(=O)([N-]S(=O)(=O)C(F)(F)F)C(F)(F)F` + O=C=O, the binary diffusion coefficient is, setting by setting: (303.15 K, 111.3 kPa, x2 = 0) 6.15e-10 m2/s; (313.15 K, 113.7 kPa, x2 = 0) 7.22e-10 m2/s; (323.15 K, 108.4 kPa, x2 = 0) 9.52e-10 m2/s; (333.15 K, 113.2 kPa, x2 = 0) 1.19e-09 m2/s; (343.15 K, 113.7 kPa, x2 = 0) 1.56e-09 m2/s.

With `Cn1cc[n+](CCO)c1.O=S(=O)([N-]S(=O)(=O)C(F)(F)F)C(F)(F)F` + O=C=O, the binary diffusion coefficient by setting is: (303.15 K, 106.2 kPa, x2 = 0) 1.31e-10 m2/s; (313.15 K, 109.9 kPa, x2 = 0) 2.67e-10 m2/s; (323.15 K, 111.2 kPa, x2 = 0) 3.97e-10 m2/s.

`Cn1cc[n+](CCO)c1.O=S(=O)([N-]S(=O)(=O)C(F)(F)F)C(F)(F)F` + S: the binary diffusion coefficient is 2.07e-10 m2/s (303.15 K, 111.7 kPa, x2 = 0); 3.35e-10 m2/s (313.15 K, 113.9 kPa, x2 = 0); 5.51e-10 m2/s (323.15 K, 114.5 kPa, x2 = 0).

Turning to `Cn1cc[n+](CCO)c1.O=S(=O)([O-])C(F)(F)F` + S, the binary diffusion coefficient (303.15 K, 107 kPa, x2 = 0) is 2.28e-10 m2/s; the binary diffusion coefficient (313.15 K, 109.6 kPa, x2 = 0) came to 2.93e-10 m2/s; the binary diffusion coefficient (323.15 K, 113.9 kPa, x2 = 0) amounted to 3.66e-10 m2/s.

For `Cn1cc[n+](CCO)c1.F[P-](F)(F)(F)(F)F` [3-(2-hydroxyethyl)-1-methylimidazolium hexafluorophosphate] + O=C=O, the binary diffusion coefficient reads like this: (303.15 K, 105.6 kPa, x2 = 0) 1.39e-10 m2/s; (313.15 K, 109.3 kPa, x2 = 0) 2.15e-10 m2/s; (323.15 K, 110.6 kPa, x2 = 0) 2.7e-10 m2/s.

With `Cn1cc[n+](CCO)c1.F[P-](F)(F)(F)(F)F` [3-(2-hydroxyethyl)-1-methylimidazolium hexafluorophosphate] + S, the binary diffusion coefficient came out at 1.55e-10 m2/s (303.15 K, 111.3 kPa, x2 = 0); 2.37e-10 m2/s (313.15 K, 113.7 kPa, x2 = 0); 3.74e-10 m2/s (323.15 K, 108.4 kPa, x2 = 0).

On to `S` [hydrogen sulfide] + CCn1cc[n+](C)c1.O=S(=O)([N-]S(=O)(=O)C(F)(F)F)C(F)(F)F, for which the binary diffusion coefficient (303.15 K, 109.8 kPa, x1 = 0) was found to be 7.98e-10 m2/s; the binary diffusion coefficient (313.15 K, 108.6 kPa, x1 = 0) is 9.06e-10 m2/s; the binary diffusion coefficient (323.15 K, 109.4 kPa, x1 = 0) turned out to be 1.17e-09 m2/s.
